In ChEMBL document CHEMBL5360639, “Cannabidiol Analogue CIAC001 for the Treatment of Morphine-Induced Addiction by Targeting PKM2” (J Med Chem, 2023):
Activity calls are given as the source filed them. The calls are words filed in the database; no cut-off is given here.

Columns and labels:
BV-2 [1] = assay: Anti-neuroinflammatory activity in mouse BV-2 cells assessed as inhibition of LPS-induced NO production incubated for 24 hrs by microplate reader analysis; type: functional, cell-based; conditions: BV-2, 24 h
[2] = Cytotoxicity against mouse BV-2 cells assessed as reduction in cell viability by crystal violet staining based assay; type: toxicity
[3] = Therapeutic index, ratio of IC50 for cytotoxicty against mouse BV-2 cells assessed as reduction in cell viability by crystal violet staining based assay to IC50 for nti-neuroinflammatory activity in mouse BV-2 cells assessed as inhibition of LPS-induced NO production; type: toxicity; conditions: read-out: Ratio IC50
BV-2 [4] = assay: Anti-neuroinflammatory activity in LPS-induced mouse BV-2 cells assessed as reduction in […] mRNA expression by qRT-PCR analysis; type: functional, cell-based; conditions: dose 1-10 µM
BV-2 [5] = assay: Anti-neuroinflammatory activity in LPS-induced mouse BV-2 cells assessed as reduction in TNF-alpha mRNA expression by qRT-PCR analysis; type: functional, cell-based; conditions: dose 1-10 µM
BV-2 [6] = assay: Anti-neuroinflammatory activity in LPS-induced mouse BV-2 cells assessed as reduction in IL-6 mRNA expression by qRT-PCR analysis; type: functional, cell-based; conditions: dose 1-10 µM
BV-2 [7] = assay: Anti-neuroinflammatory activity in LPS-induced mouse BV-2 cells assessed as formation of amoeboid-shaped cells at 10 uM incubated for 24 hrs by inverted microscopic analysis; type: functional, cell-based
BV-2 [8] = assay: Anti-neuroinflammatory activity in LPS-induced mouse BV-2 cells assessed as reduction in iNOS mRNA expression at 10 uM incubated for 24 hrs by qRT-PCR analysis; type: functional, cell-based
BV-2 [9] = assay: Anti-neuroinflammatory activity in LPS-induced mouse BV-2 cells assessed as reduction in IL-1beta mRNA expression at 10 uM incubated for 24 hrs by qRT-PCR analysis; type: functional, cell-based
BV-2 [10] = assay: Anti-neuroinflammatory activity in LPS-induced mouse BV-2 cells assessed as reduction in […] mRNA expression at 10 uM incubated for 24 hrs by qRT-PCR analysis; type: functional, cell-based
Mus musculus [11] = assay: Anti-neuroinflammatory activity in naloxone precipitated morphine-induced ip dosed BALB/c mouse assessed as reduction in naloxone precipitated withdrawal jumps administered with morphine 3 times daily for 3 days and on day 4 for 3 hrs prior to compound addition for 30 mins before naloxone addition and measured after 15 mins; type: functional, organism-based; conditions: dose 0.2-20 µg/kg, time 45.0 min
Mus musculus [12] = assay: Anti-neuroinflammatory activity in morphine-induced BALB/c mouse assessed as inhibition of behavioral sensitization at 0.2 mg/kg, ip administered once daily for 7 days; type: functional, organism-based; conditions: time 7.0 day
Mus musculus [13] = assay: Anti-neuroinflammatory activity in morphine-induced BALB/c mouse assessed as […] in locomotor activity 0.2 mg/kg, ip administered once daily for 7 days and measured after 60 mins; type: functional, organism-based; conditions: time 169.0 hrs
Mus musculus [14] = assay: Anti-neuroinflammatory activity in morphine-induced BALB/c mouse assessed as decrease in conditioned place preference behavior 0.2 mg/kg, ip pretreated for 6 days followed by morphine induction and measured on days 5 to 9 days; type: functional, organism-based; conditions: time 11-15 day
Mus musculus [15] = assay: Anti-neuroinflammatory activity in morphine-induced BALB/c mouse assessed as inhibition of IL-1beta expression in mPFC region 0.2 mg/kg, ip; type: functional, organism-based
Mus musculus [16] = assay: Anti-neuroinflammatory activity in morphine-induced BALB/c mouse assessed as inhibition of IL-1beta expression in NAc region 0.2 mg/kg, ip; type: functional, organism-based
Mus musculus [17] = assay: Anti-neuroinflammatory activity in morphine-induced BALB/c mouse assessed as inhibition of IL-1beta expression in VTA region 0.2 mg/kg, ip; type: functional, organism-based
Mus musculus [18] = assay: Anti-neuroinflammatory activity in morphine-induced BALB/c mouse assessed as inhibition of Iba1 expression in mPFC region 0.2 mg/kg, ip; type: functional, organism-based
[19] = Tmax in BALB/c mouse plasma at 10 mg/kg, po measured upto 4 hrs by mS-HPLC analysis; type: ADME, organism-based
[20] = Tmax in BALB/c mouse brain at 10 mg/kg, po measured upto 4 hrs by mS-HPLC analysis; type: ADME, organism-based
[21] = Cmax in BALB/c mouse at 10 mg/kg, po measured upto 4 hrs by mS-HPLC analysis; type: ADME, organism-based; parameters: time < 4 hrs, dose 10 mg/kg, route po; conditions: in vivo
[22] = Half life in BALB/c mouse at 10 mg/kg, po measured upto 4 hrs by mS-HPLC analysis; type: ADME, organism-based; conditions: in vivo
[23] = MRT in BALB/c mouse at 10 mg/kg, po measured upto 4 hrs by mS-HPLC analysis; type: ADME, organism-based; conditions: in vivo
[24] = Ratio of drug concentration in blood to plasma in BALB/c mouse at 10 mg/kg, po measured at 3 hrs; type: ADME, organism-based; conditions: in vivo
[25] = AUC (0 to t) in BALB/c mouse at 10 mg/kg, po measured upto 4 hrs by mS-HPLC analysis; type: ADME, organism-based; conditions: in vivo
[26] = Toxicity in BALB/c mouse assessed as effect on respiratory rate at 20 mg/kg, ip measured on day 2 and 5; type: organism-based; conditions: in vivo, 120 h, time 5 day
[27] = Toxicity in BALB/c mouse assessed as cognitive impairment by measuring time spent on new arm at 20 mg/kg, ip administered once daily for 3 days and measured after 45 mins by Y maze test; type: organism-based; conditions: in vivo, 72.75 h, time 4365 min
[28] = Toxicity in BALB/c mouse assessed as rewarding effect at 20 mg/kg, ip measured after 6 days by CPP analysis; type: organism-based; conditions: in vivo, 144 h, time 6 day
[29] = Toxicity in BALB/c mouse assessed as effect on locomotor activity at 20 mg/kg, ip measured administered once daily for 7 days and measured after 24 hrs by open field test; type: organism-based; conditions: in vivo, 192 h
[30] = Toxicity in BALB/c mouse assessed as effect on grooming behavior at 20 mg/kg, ip measured administered once daily for 7 days and measured after 24 hrs by open field test; type: organism-based; conditions: in vivo, 192 h
[31] = Toxicity in BALB/c mouse assessed as effect on rubbing behavior at 20 mg/kg, ip measured administered once daily for 7 days and measured after 24 hrs by open field test; type: organism-based; conditions: in vivo, 192 h
[32] = Toxicity in BALB/c mouse assessed as assessed as effect on body weight at 20 mg/kg, ip measured administered once daily for 7 days and; type: organism-based; conditions: in vivo, 168 h, time 7 day
[33] = target: Pyruvate kinase PKM (Mus musculus) (UniProt P52480); assay: Competitive inhibition of CIAC001-P1 probe binding to PKM2 in mouse BV-2 cells at 20 uM pretreated for 2 hrs followed by UV light treatment and measured after 30 mins by silver staining based Streptavidin-pull down assay; type: cell-based; conditions: time 2.5 hrs
[34] = target: Pyruvate kinase PKM (Mus musculus) (UniProt P52480); assay: Competitive inhibition of CIAC001-P2 probe binding to PKM2 in mouse BV-2 cells at 20 uM pretreated for 2 hrs followed by UV light treatment and measured after 30 mins by silver staining based Streptavidin-pull down assay; type: cell-based; conditions: time 2.5 hrs
[35] = target: Pyruvate kinase PKM (Mus musculus) (UniProt P52480); assay: Binding affinity to PKM2 in mouse BV-2 cells at 20 uM by Western blot analysis; type: cell-based
[36] = target: Pyruvate kinase PKM (Mus musculus) (UniProt P52480); assay: Binding affinity to PKM1 in mouse BV-2 cells at 20 uM by Western blot analysis; type: cell-based
[37] = target: Pyruvate kinase PKM (Mus musculus) (UniProt P52480); assay: Binding affinity to PKM2 in mouse BV-2 cells assessed as thermal stabilization by measuring change in melting temperature incubated for 2 hrs by Western blot analysis; type: cell-based
Pyruvate kinase PKM = Pyruvate kinase PKM (Mus musculus, UniProt P52480); assay: Binding affinity to PKM2 in mouse BV-2 cells by Western blot analysis; type: cell-based
[38] = target: Pyruvate kinase PKM (Mus musculus) (UniProt P52480); assay: Activation of PKM2 in mouse BV-2 cells assessed as increase in ATP level at 10 uM measured for 6 hrs; type: cell-based; conditions: filed as activator
BV-2 [39] = assay: Inhibition of LPS-induced PKM2 tetramer in mouse BV-2 cells at 10 uM; type: functional, cell-based
BV-2 [40] = assay: Inhibition of LPS-induced PKM2 monomer in mouse BV-2 cells at 10 uM; type: functional, cell-based
BV-2 [41] = assay: Inhibition of LPS-induced nuclear translocation in mouse BV-2 cells incubated for 6 hrs by Western blot analysis; type: functional, cell-based
BV-2 [42] = assay: Inhibition of LPS-induced LDHA mRNA overexpression in mouse BV-2 cells at 10 uM incubated for 6 hrs; type: functional, cell-based
BV-2 [43] = assay: Inhibition of LPS-induced LDH release in mouse BV-2 cells at 10 uM incubated for 6 hrs; type: functional, cell-based
Mus musculus [44] = assay: Inhibition of morphine-induced Hif-1alpha overexpression in BALB/c mouse at 0.2 mg/kg, ip measured for 7 days; type: functional, organism-based; conditions: time 7.0 day
[45] = target: Cannabinoid receptor (Homo sapiens) (UniProt P34972+P21554); assay: Agonist activity at CB1/CB2 (unknown origin) receptor expressed in HEK293 cells assessed as inhibition of forskolin-stimulated cAMP accumulation incubated for 2 hrs by microplate reader analysis; type: functional, cell-based; conditions: filed as agonist
Cannabinoid receptor (Homo sapiens), sequence (P21554 whole entry, looked up): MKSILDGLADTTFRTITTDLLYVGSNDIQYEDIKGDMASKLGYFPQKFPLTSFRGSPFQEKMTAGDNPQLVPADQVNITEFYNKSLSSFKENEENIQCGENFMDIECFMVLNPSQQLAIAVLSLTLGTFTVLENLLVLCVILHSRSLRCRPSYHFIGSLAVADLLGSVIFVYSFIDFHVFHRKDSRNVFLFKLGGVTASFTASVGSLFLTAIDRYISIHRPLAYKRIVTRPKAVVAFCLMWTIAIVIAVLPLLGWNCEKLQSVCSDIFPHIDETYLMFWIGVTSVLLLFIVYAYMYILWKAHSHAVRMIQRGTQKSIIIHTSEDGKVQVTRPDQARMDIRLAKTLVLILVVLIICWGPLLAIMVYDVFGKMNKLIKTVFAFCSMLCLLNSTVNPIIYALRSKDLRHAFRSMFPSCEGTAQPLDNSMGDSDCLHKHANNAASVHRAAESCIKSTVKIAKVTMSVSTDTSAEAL
Cannabinoid receptor (Homo sapiens), sequence (P34972 whole entry, looked up): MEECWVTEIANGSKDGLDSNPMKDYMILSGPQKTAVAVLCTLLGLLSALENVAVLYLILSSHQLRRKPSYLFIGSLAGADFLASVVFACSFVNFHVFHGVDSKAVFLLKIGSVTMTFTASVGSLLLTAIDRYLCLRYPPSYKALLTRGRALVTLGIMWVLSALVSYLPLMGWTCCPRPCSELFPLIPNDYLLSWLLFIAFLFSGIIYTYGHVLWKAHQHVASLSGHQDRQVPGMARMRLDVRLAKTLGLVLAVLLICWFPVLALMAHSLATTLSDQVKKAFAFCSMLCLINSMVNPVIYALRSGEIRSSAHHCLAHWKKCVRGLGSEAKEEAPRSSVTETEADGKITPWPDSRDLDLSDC

Pyruvate kinase PKM (Mus musculus), sequence (P52480 whole entry): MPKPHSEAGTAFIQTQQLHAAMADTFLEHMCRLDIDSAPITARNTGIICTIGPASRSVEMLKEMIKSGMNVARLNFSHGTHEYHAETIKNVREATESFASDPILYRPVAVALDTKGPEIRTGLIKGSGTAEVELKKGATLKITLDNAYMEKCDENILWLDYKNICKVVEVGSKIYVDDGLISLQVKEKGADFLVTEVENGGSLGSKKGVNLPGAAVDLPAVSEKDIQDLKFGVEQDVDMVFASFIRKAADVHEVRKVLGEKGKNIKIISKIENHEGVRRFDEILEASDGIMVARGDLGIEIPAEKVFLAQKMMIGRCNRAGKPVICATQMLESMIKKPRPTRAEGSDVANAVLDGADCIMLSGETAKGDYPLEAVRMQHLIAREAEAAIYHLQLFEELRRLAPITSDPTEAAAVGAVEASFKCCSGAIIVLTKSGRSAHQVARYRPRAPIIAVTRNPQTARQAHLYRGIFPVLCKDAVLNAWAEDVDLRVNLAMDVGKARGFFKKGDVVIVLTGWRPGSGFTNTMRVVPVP
Pyruvate kinase PKM, sequence (P52480 whole entry): as above

Work on `C=C(C)[C@@H]1CCC(C)=C[C@H]1c1c(O)cc(CCC)cc1O` [CANNABIDIVARIN] yielded an IC50 (BV-2 [1]) of 5.3 µM, an IC50 [2] of 18.3 µM and a selectivity ratio [3] of 3.5.
Compound `C=CCOc1cc(CCCCC)cc(OCC=C)c1[C@@H]1C=C(C)CC[C@H]1C(=C)C` has an IC50 [2] of over 200 µM.
In the case of `C=C(C)[C@@H]1CCC(C)=C[C@H]1c1c(O)cc(CCCCCCCC)cc1O`, the IC50 [2] is reported as 26.2 µM and the selectivity ratio [3] is reported as 0.2.
`C=CCOc1cc(CCCCC)cc(O)c1[C@@H]1C=C(C)CC[C@H]1C(=C)C` gave an IC50 (BV-2 [1]) of 59.8 µM, an IC50 [2] of 71.5 µM and a selectivity ratio [3] of 0.7.
With `C=C(C)[C@@H]1CCC(C)=C[C@H]1c1c(O)cc(C(C)n2nccn2)cc1O` (stereo not given in full) the IC50 (BV-2 [1]) was 2.5 µM, the IC50 [2] was 57.8 µM and the selectivity ratio [3] was 23.1. For the same compound, the Activity (BV-2 [4]) was “Dose-Dependent Effect”, the Activity (BV-2 [5]) was “Dose-Dependent Effect” and the Activity (BV-2 [6]) was “Dose-Dependent Effect”. For the same compound, the Activity (BV-2 [7]) was “Active”, the Activity (BV-2 [8]) was “Active” and the Activity (BV-2 [9]) was “Active”. The Activity (BV-2 [10]) was “Active”, the Activity (Mus musculus [11]) was “Dose-Dependent Effect” and the Activity (Mus musculus [12]) was “Active”. The Activity (Mus musculus [13]) was “Active”, the Activity (Mus musculus [14]) was “Active” and the Activity (Mus musculus [15]) was “Active”. The Activity (Mus musculus [16]) was “Active”, the Activity (Mus musculus [17]) was “Active” and the Activity (Mus musculus [18]) was “Active”. For the same compound, the Tmax [19] was 18 min, the Tmax [20] was 30 min and the Cmax [21] was 175 ng/g. For the same compound, the half-life [22] was 48 min, the MRT [23] was 54 min and the Ratio [24] was under 200%. For the same compound, the AUCt [25] was 172.8 ng·h/g, the Activity [26] was “Non-Toxic” and the Activity [27] was “Non-Toxic”. The Activity [28] was “Non-Toxic”, the Activity [29] was “Non-Toxic” and the Activity [30] was “Non-Toxic”. The Activity [31] was “Non-Toxic”, the Activity [32] was “Non-Toxic” and the inhibition [33] was “Active”. For the same compound, the inhibition [34] was “Active”, the Activity [35] was “Active” and the Activity [36] was “Active”. For the same compound, the ΔTm [37] was 3.9 °C, the Kd (Pyruvate kinase PKM) was 2.2 µM and the Activity [38] was “Active”. For the same compound, the inhibition (BV-2 [39]) was “Active”, the inhibition (BV-2 [40]) was “Active” and the inhibition (BV-2 [41]) was “Active”. For the same compound, the inhibition (BV-2 [42]) was “Active”, the inhibition (BV-2 [43]) was “Active” and the inhibition (Mus musculus [44]) was “Active”. The Activity [45] was “Active”.
